Structures can show the parent of a compound that is named as a salt.
Target: T1, MCH1R (Homo sapiens, UniProt Q99705)
T1 construct: IC50; other: cells stably expressing non-endogenous active MCH1R; 50 nM MCH; Fluo-4 calcium, FDSS6000; list of compounds i
Assay: MCH1R calcium evaluation test (FDSS assay, inhibition of MCH-induced intracellular calcium increase)
Assay type: cell-based
Settings: cells stably expressing non-endogenous active MCH1R; 50 nM MCH; Fluo-4 calcium, FDSS6000
Text: MCH1R Calcium Evaluation Test
An FDSS assay can measure the intracellular calcium concentration and can evaluate the Gq-coupled receptor activity using the calcium concentration as an index. For example, the assay can determine whether an analyte is an antagonist, an inverse agonist or an agonist for a Gq-coupled receptor. The FDSS6000™ system (Hamamatsu Photonics K.K.) is designed to perform evaluation based on functionality such as measurement of intracellular calcium for high-throughput screening. Intracellular calcium release by activation of a Gq-coupled receptor can be fluorometrically measured by incorporating a calcium indicator (such as Fluo4) into cells. On the other hand, the assay cannot measure the activation of Gi- and Go-coupled receptors, because the activation is not associated with calcium signaling pathways.
Intracellular fluorescence can be rapidly and successively measured in a 96-well microplate or a 384-well microplate using a fluorometric imaging plate reader system. FDSS6000™ can simultaneously measure fluorescence in all wells sensitively, accurately and by seconds. This system is ideal for functional analysis in cells such as monitoring of an intracellular calcium flow generated within several seconds after activation of a Gq-coupled receptor.
On the day before the test, cells stably expressing non-endogenous active MCH1R were seeded into a 96-well microplate at 3×10^4 cells per well. 100 μL per well of a medium (Dulbecco's modified Eagle medium containing 10% fetal bovine serum, 2 mM glutamine, 1 mM sodium pyruvate and 0.5 mg/mL G418, pH 7.4) was used for culture. On the day of the test, the medium was removed and an assay buffer {Hank's balanced salt solution containing 20 mM HEPES, 0.5 mM probenecid, 0.05 mg/mL amaranth and 0.2% bovine serum albumin (BSA), pH 7.4} containing 2 μM Fluo-4-AM and 0.04% Pluronic F127 was added at 100 μL per well, followed by incubation in a 5% CO2 incubator at 37° C. for one hour. Thereafter, the buffer was removed and an assay buffer containing each concentration of the test compound was newly added at 150 μL per well, followed by incubation in a 5% CO2 incubator at 37° C. for 30 minutes. An assay buffer containing each concentration of MCH was added at 50 μL per well, and transient changes in the intracellular calcium concentration induced by MCH were monitored using FDSS6000™ at Ex. 488 nm and Em. 530 nm for 180 seconds. In testing the antagonistic activity of the analyte, MCH was added to a final concentration of 50 nM. An inhibition curve was prepared with various concentrations of the analyte, and the concentration of the analyte inhibiting 50% of the increase in intracellular calcium when 50 nM MCH was added (IC50 value) was calculated using data analysis software Origin Ver. 6.

Row | Compound | IC50 [nM]
1 | CNCCNCc1ccc2ccc(CN3CCC(NC(=O)c4cccc(OC)c4)CC3)cc2c1 [Example 67, 3-Methoxy-N-(1-{[7-({[2-(methylamino)ethyl]amino}methyl)-2-naphthyl]methyl}piperidin-4-yl)benzamide trihydrochloride] | 6.51
2 | CCOCc1ccc2ccc(CN3CCC(NC(=O)c4ccc(F)c(Cl)c4)CC3)cc2c1 [Example 6, 3-chloro-N-(1-{[7-(ethoxymethyl)-2-naphthyl]methyl}piperidin-4-yl)-4-fluorobenzamide] | 3.54
3 | COCc1ccc2ccc(CN3CCC(NC(=O)c4cccc(OC)c4)CC3)cc2c1 [Example 13, 3-Methoxy-N-(1-{[7-(methoxymethyl)-2-naphthyl]methyl}piperidin-4-yl)benzamide] | 10.4
4 | COc1cccc(C(=O)NC2CCN(Cc3ccc4ccc(CNCCN5CCCC5)cc4c3)CC2)c1 [Example 48, 3-Methoxy-N-{1-[(7-{[(2-pyrrolidin-1-ylethyl)amino]methyl}-2-naphthyl)methyl]piperidin-4-yl}benzamide] | 9.68
5 | COCCOCc1ccc2ccc(CN3CCC(NC(=O)c4cccc(OC)c4)CC3)cc2c1 [Example 26, 3-Methoxy-N-[1-({7-[(2-methoxyethoxy)methyl]-2-naphthyl}methyl)piperidin-4-yl]benzamide] | 5.67
6 | COc1cccc(C(=O)NC2CCN(Cc3ccc4ccc(COCCN5CCCC5)cc4c3)CC2)c1 [Example 36, 3-Methoxy-N-[1-({7-[(2-pyrrolidin-1-ylethoxy)methyl]-2-naphthyl}methyl)piperidin-4-yl]benzamide] | 6.11
7 | COCc1ccc2ccc(CN3CCC(NC(=O)c4cc(OC)cc(OC)c4)CC3)cc2c1 [Example 10, 3,5-Dimethoxy-N-(1-{[7-(methoxymethyl)-2-naphthyl]methyl}piperidin-4-yl)benzamide] | 4.99
8 | COc1cccc(C(=O)NC2CCN(Cc3ccc4ccc(CCO)cc4c3)CC2)c1 [Example 120, N-(1-{[7-(2-hydroxyethyl)-2-naphthyl]methyl}piperidin-4-yl)-3-methoxybenzamide] | 7.41
9 | COCCOCc1ccc2ccc(CN3CCC(NC(=O)c4cccc(C(C)=O)c4)CC3)cc2c1 [Example 90, 3-Acetyl-N-[1-({7-[(2-methoxyethoxy)methyl]-2-naphthyl}methyl)piperidin-4-yl]benzamide] | 7.69
10 | COc1cccc(C(=O)NC2CCN(Cc3ccc4ccc(CNCCN)cc4c3)CC2)c1 [Example 64, N-{1-[(7-{[(2-Aminoethyl)amino]methyl}-2-naphthyl)methyl]piperidin-4-yl}-3-methoxybenzamide trihydrochloride] | 7.14
11 | COc1cccc(C(=O)NC2CCN(Cc3ccc4ccc(CNCCN(C)C)cc4c3)CC2)c1 [Example 49, N-(1-{[7-({[2-(Dimethylamino)ethyl]amino}methyl)-2-naphthyl]methyl}piperidin-4-yl)-3-methoxybenzamide] | 7.08
12 | COc1cccc(C(=O)NC2CCN(Cc3ccc4ccc(COCCN(C)C)cc4c3)CC2)c1 [Example 37, N-{1-[(7-{[2-(dimethylamino)ethoxy]methyl}-2-naphthyl)methyl]piperidin-4-yl}-3-methoxybenzamide] | 4.89

From patent publication US20100081825A1, “1-NAPHTHYL ALKYLPIPERIDINE DERIVATIVE” (Taisho Pharmaceutical Co Ltd, priority 2006, published 2010)
